{"source": "paper PMC7719162", "about": "“Positioning of an unprecedented spiro[5.5]undeca ring system into kinase inhibitor space” (Scientific Reports, 2020)", "key": {"PKCa": {"biological_target": "T1, PKCa (Homo sapiens, UniProt P17252)", "T1 construct": "purchased Reaction Biology Corp", "conditions": "cited from earlier work"}, "PKN2/PRK2": {"biological_target": "T2, PKN2/PRK2 (Homo sapiens, UniProt Q16513)", "T2 construct": "purchased Reaction Biology Corp", "conditions": "cited from earlier work"}, "DAPK2": {"biological_target": "T3, DAPK2 (Homo sapiens, UniProt Q9UIK4)", "T3 construct": "purchased Reaction Biology Corp", "conditions": "cited from earlier work"}, "STK25/YSK1 [1]": {"biological_target": "T4, STK25/YSK1 (Homo sapiens, UniProt O00506)", "T4 construct": "purchased Reaction Biology Corp", "conditions": "cited from earlier work"}, "IL-1β": {"tested_on": "IL-1β", "assay": "Secreted IL-1β ELISA in LPS-induced BV-2 cells", "assay_type": "cell-based, murine", "experimental": "(§1) To evaluate the secreted level of Prostaglandin E2 (PGE2), Tumor necrosis factor (TNF-α), Interleukin (IL-6), Interleukin (IL-1β), BV2 cells were seeded in a 6 well plate at the density of 1.5 × 10^6 cells/well in DMEM and incubated for 24 h. Seeded cells sere pretreated and, activated with LPS for next 24 h. conditioned medium from treated cells were collected and stored at -80 degree for longer period of time. The amount of TNF-α, IL-1β, PGE2,and IL-6 were evaluated using the competitive enzyme immunoassay kit. PGE2 kit were obtained from (Cayman Chemical, Ann Arbor, MI, USA) and TNF-α, IL-1β, and IL-6 were measured using ELISA development kits (R&D Systems, Minneapolis, MN, USA). All the protocol was exactly followed as written in the manual."}, "EIF2AK3": {"biological_target": "T5, EIF2AK3 (Homo sapiens, UniProt Q9NZJ5)", "T5 construct": "purchased Reaction Biology Corp", "T5 sequence (Q9NZJ5 30-1116)": "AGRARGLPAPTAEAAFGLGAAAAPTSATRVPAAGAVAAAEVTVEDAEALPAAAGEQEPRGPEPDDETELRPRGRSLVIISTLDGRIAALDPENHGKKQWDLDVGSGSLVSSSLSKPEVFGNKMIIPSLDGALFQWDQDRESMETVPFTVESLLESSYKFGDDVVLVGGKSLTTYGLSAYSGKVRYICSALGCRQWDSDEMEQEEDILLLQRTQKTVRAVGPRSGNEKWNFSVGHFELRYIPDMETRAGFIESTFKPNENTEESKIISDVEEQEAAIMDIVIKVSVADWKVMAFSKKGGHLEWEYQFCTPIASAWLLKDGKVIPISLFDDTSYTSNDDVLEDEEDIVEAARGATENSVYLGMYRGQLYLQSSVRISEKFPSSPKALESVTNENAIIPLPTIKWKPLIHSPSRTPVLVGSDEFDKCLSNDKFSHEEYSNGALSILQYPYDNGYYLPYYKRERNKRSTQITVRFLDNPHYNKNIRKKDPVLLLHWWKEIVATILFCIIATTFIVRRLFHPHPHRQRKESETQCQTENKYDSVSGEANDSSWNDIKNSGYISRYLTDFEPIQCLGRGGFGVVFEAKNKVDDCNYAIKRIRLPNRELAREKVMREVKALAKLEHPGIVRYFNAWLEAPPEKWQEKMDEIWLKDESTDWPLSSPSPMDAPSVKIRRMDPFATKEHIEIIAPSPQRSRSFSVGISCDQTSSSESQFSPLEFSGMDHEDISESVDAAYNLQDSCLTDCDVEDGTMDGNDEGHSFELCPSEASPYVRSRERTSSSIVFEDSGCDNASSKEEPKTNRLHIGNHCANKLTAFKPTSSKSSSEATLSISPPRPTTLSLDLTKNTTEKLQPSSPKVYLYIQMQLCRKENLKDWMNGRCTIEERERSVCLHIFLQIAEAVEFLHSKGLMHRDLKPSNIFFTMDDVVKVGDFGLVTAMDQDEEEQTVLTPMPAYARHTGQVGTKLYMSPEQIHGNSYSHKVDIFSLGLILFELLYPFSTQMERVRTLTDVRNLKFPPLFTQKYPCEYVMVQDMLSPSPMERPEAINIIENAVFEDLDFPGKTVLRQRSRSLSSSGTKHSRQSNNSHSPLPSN", "assay": "Kinase panel assay (radiolabelled)", "assay_type": "biochemical", "conditions": "30 μM compound, ATP 10 μM, duplicates Data 1/Data 2"}, "TRKA": {"biological_target": "T6, TRKA (Homo sapiens, UniProt P04629)", "T6 construct": "purchased Reaction Biology Corp", "T6 sequence (P04629 33-796)": "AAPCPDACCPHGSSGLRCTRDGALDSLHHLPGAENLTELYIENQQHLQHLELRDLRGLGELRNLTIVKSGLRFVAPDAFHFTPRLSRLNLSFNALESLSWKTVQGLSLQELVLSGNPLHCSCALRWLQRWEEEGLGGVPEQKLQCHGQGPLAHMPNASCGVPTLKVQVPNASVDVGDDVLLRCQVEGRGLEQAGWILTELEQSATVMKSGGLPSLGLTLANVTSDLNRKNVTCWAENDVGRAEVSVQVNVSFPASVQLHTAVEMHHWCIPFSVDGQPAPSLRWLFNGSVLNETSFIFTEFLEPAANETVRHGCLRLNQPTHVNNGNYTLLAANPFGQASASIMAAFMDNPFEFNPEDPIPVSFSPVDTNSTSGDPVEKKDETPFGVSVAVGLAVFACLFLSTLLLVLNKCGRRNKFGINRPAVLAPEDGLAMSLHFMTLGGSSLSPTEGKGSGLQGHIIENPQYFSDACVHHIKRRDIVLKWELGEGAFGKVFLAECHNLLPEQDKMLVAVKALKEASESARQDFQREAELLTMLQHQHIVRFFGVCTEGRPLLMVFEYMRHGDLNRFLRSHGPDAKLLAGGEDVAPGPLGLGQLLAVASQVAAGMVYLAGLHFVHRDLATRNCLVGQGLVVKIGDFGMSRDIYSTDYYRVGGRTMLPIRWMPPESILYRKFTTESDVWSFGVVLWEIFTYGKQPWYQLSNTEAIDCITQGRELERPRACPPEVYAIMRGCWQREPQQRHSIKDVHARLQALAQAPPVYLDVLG", "assay": "Kinase panel assay (radiolabelled)", "assay_type": "biochemical", "conditions": "ATP 10 μM"}, "JNK1": {"biological_target": "T7, JNK1 (Homo sapiens, UniProt P45983)", "T7 construct": "purchased Reaction Biology Corp", "assay": "Kinase panel assay (radiolabelled)", "assay_type": "biochemical", "conditions": "ATP 10 μM"}, "AMPK(A1/B1/G1) [2]": {"biological_target": "T8, AMPK(A1/B1/G1) (Homo sapiens, UniProt Q13131)", "T8 construct": "purchased Reaction Biology Corp", "assay": "Kinase panel assay (radiolabelled)", "assay_type": "biochemical", "conditions": "30 μM compound, ATP 10 μM; duplicates Data 1/Data 2"}, "AMPK(A1/B1/G1) [3]": {"biological_target": "T9, AMPK(A1/B1/G1) (Homo sapiens, UniProt P54619+Q13131+Q9Y478)", "T9 construct": "purchased Reaction Biology Corp", "assay": "Kinase panel assay (radiolabelled)", "assay_type": "biochemical", "conditions": "30 μM compound, ATP 10 μM; duplicates Data 1/Data 2; read-out: % Enzyme Activity (relative to DMSO controls)"}, "STK25/YSK1 [4]": {"biological_target": "T4, STK25/YSK1", "assay": "Kinase panel assay (radiolabelled)", "assay_type": "biochemical", "conditions": "ATP 10 μM"}, "TRKA-TPM3": {"biological_target": "TRKA-TPM3 (Homo sapiens, UniProt P04629)", "sequence (P04629 399-796)": "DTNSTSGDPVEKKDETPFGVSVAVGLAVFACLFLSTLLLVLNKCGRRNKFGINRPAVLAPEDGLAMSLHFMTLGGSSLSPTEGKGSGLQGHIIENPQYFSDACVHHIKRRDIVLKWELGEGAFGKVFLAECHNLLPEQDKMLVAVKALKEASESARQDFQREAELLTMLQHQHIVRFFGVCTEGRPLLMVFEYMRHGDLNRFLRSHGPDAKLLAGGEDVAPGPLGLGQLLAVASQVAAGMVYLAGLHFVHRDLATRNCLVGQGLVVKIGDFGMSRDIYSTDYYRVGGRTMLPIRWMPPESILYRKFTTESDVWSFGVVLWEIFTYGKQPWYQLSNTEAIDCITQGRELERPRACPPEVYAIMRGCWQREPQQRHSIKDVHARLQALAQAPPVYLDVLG", "sequence (P06753 2-258 partner)": "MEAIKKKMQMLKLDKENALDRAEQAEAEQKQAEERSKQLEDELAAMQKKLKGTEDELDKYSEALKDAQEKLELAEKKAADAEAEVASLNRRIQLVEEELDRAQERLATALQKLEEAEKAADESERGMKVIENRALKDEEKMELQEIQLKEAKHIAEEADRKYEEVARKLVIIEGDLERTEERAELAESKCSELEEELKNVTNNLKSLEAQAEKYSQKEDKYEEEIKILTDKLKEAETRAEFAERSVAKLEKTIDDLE", "assay": "Kinase panel assay (radiolabelled)", "assay_type": "biochemical", "conditions": "30 μM compound, ATP 10 μM, duplicates Data 1/Data 2"}, "iNOS": {"tested_on": "iNOS", "assay": "Western blot of iNOS in LPS-induced BV-2 cells", "assay_type": "cell-based, murine", "experimental": "Western blot analysis was performed to see the protein expression of the iNOS and COX-2 in the BV2 cells. BV2 cells were seeded in a 6 well plate at the density of 6 × 10^5 cells/well overnight and cells were treated as mentioned earlier in the cell treatment section and this time treatment was performed for 6 h only. After 6 h, cells were harvested and lysed with lysis buffer containing (RIPA, protease inhibitor & phosphatase inhibitor), protein estimation was performed using biorad assay and the 30 µg of total protein was separated by 8% SDS-PAGE gel electrophoresis, transferred to nitrocellulose membranes, and incubated with primary antibodies against tubulin, iNOS, COX-2, and α-tubulin. […] membranes were incubated with horseradish peroxidase-conjugated secondary antibodies, and protein bands were visualized using ECL Western Blotting Detection Reagents (Amersham Pharmacia Biotech). Quantitative analysis of the protein bands was quantified using Image Master 2D Elite software (version 3.1, Amersham Pharmacia Biotech)."}, "AMPK(A2/B2/G2) [5]": {"biological_target": "T10, AMPK(A2/B2/G2) (Homo sapiens, UniProt O43741+P54646+Q9UGJ0)", "T10 construct": "purchased Reaction Biology Corp", "assay": "Kinase panel assay (radiolabelled)", "assay_type": "biochemical", "conditions": "30 μM compound, ATP 10 μM; duplicates Data 1/Data 2; read-out: % Enzyme Activity (relative to DMSO controls)"}, "AMPK(A2/B2/G2) [6]": {"biological_target": "T11, AMPK(A2/B2/G2) (Homo sapiens, UniProt P54646)", "T11 construct": "purchased Reaction Biology Corp", "assay": "Kinase panel assay (radiolabelled)", "assay_type": "biochemical", "conditions": "30 μM compound, ATP 10 μM; duplicates Data 1/Data 2"}, "ROCK1": {"biological_target": "T12, ROCK1 (Homo sapiens, UniProt Q13464)", "T12 construct": "purchased Reaction Biology Corp", "assay": "Kinase panel assay (radiolabelled)", "assay_type": "biochemical", "conditions": "ATP 10 μM"}, "PI3K (p110a(E542K)/p85a)": {"biological_target": "T13, PI3K (p110a(E542K)/p85a) (Homo sapiens, UniProt P42336, E542K)", "T13 construct": "purchased Reaction Biology Corp", "T13 sequence (P42336 whole entry E542K)": "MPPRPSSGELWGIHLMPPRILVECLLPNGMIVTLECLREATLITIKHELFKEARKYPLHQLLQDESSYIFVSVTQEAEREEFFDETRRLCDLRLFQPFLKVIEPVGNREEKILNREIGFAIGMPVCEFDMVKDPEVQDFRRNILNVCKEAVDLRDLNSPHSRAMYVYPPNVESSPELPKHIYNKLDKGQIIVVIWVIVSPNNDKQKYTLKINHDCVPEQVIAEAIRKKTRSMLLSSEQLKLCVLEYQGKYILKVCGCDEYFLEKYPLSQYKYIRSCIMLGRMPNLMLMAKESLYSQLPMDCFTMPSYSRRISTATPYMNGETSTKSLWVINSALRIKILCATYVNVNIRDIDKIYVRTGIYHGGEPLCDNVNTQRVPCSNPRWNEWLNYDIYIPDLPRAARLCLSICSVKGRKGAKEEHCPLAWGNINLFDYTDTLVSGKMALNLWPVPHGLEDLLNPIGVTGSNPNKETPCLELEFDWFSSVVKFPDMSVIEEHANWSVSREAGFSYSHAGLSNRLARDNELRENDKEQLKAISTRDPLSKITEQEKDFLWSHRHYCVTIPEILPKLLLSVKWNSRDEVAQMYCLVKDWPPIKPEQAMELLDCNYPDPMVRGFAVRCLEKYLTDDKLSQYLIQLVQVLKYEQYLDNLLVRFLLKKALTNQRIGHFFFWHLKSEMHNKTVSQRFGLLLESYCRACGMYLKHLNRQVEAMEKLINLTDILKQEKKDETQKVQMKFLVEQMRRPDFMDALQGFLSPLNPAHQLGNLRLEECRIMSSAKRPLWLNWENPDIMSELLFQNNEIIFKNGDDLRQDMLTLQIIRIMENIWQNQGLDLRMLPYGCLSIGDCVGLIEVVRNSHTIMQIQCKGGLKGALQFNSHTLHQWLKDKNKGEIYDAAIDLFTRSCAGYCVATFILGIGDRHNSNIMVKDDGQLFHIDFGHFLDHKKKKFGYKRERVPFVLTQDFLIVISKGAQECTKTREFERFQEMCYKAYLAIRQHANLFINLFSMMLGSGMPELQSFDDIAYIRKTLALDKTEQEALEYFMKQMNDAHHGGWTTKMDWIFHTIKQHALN", "T13 sequence (P27986 whole entry partner)": "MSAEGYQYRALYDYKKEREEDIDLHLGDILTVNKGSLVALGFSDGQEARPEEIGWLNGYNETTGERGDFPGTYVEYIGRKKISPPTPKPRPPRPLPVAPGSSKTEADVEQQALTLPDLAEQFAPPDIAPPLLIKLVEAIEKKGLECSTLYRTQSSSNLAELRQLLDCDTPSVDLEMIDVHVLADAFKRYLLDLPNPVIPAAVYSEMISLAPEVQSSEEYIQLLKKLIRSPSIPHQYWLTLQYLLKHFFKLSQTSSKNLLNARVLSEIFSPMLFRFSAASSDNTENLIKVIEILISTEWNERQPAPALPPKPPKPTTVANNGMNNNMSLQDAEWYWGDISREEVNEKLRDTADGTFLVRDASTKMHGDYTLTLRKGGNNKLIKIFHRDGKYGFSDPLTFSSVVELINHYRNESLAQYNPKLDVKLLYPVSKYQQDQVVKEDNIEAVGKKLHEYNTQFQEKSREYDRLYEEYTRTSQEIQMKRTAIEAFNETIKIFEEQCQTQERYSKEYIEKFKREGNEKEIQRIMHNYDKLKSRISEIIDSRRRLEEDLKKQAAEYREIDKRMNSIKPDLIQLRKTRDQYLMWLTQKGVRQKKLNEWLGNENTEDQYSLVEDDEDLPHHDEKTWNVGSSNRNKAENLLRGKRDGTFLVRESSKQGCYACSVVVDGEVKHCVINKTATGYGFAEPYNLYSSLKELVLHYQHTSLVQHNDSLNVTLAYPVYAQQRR", "assay": "Kinase panel assay (lipid kinase)", "assay_type": "biochemical", "conditions": "30 μM compound, ATP 10 μM, duplicates Data 1/Data 2"}, "ARK5/NUAK1": {"biological_target": "T14, ARK5/NUAK1 (Homo sapiens, UniProt O60285)", "T14 construct": "purchased Reaction Biology Corp", "T14 sequence (O60285 1-661)": "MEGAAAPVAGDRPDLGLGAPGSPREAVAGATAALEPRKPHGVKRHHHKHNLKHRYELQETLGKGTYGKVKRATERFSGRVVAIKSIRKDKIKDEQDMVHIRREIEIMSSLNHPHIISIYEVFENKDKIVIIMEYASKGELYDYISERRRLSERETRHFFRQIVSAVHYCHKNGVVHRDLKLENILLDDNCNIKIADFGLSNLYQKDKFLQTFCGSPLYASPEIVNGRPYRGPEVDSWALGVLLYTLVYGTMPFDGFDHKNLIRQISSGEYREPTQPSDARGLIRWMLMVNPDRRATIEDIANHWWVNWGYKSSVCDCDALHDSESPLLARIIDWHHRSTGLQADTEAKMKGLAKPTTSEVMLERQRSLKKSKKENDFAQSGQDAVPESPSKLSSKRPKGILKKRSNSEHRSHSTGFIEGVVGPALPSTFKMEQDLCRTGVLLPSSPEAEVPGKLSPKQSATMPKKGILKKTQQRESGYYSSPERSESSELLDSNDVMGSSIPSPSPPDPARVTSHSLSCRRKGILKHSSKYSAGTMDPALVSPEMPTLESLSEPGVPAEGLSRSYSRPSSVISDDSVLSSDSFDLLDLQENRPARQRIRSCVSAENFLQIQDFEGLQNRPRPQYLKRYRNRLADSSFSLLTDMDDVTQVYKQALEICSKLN", "assay": "Kinase panel assay (radiolabelled)", "assay_type": "biochemical", "conditions": "ATP 10 μM"}, "PGE2": {"tested_on": "PGE2", "assay": "Secreted PGE2 immunoassay in LPS-induced BV-2 cells", "assay_type": "cell-based, murine", "experimental": "as §1"}, "PI3K (p110a/p65a)": {"biological_target": "T15, PI3K (p110a/p65a) (Homo sapiens, UniProt P42336)", "T15 construct": "purchased Reaction Biology Corp", "T15 sequence (P42336 whole entry)": "as the sequence (P42336 whole entry E542K) above, with K542E counted along it", "assay": "Kinase panel assay (lipid kinase)", "assay_type": "biochemical", "conditions": "30 μM compound, ATP 10 μM, duplicates Data 1/Data 2"}, "[7]": {"conditions": "read-out: % Enzyme Activity (relative to DMSO controls)"}, "[8]": {"conditions": "30 μM compound, duplicates Data 1/Data 2"}, "[9]": {"conditions": "30 μM compound, duplicates Data 1/Data 2, read-out: % Enzyme Activity (relative to DMSO controls)"}, "[10]": {"conditions": "30 μM, average ± SD, read-out: % Residual Activity at 30 μM"}}, "note": "Like-named read-outs stand apart in the source and are kept apart here."}
{"smiles": "O=C1C=CC2(C=C1)OCC(Cc1cc(C(F)(F)F)cc(C(F)(F)F)c1)C(=O)N2c1ccccc1", "note": "(racemic) [1c]", "values": [{"measurement": "% Residual Activity at 30 μM", "setting": "PKCa", "value": "45.6 ± 1.2", "unit": "%"}, {"measurement": "% Residual Activity at 30 μM", "setting": "PKN2/PRK2", "value": "63.5 ± 1.8", "unit": "%"}, {"measurement": "% Residual Activity at 30 μM", "setting": "DAPK2", "value": "120.1 ± 0.6", "unit": "%"}, {"measurement": "% Residual Activity at 30 μM", "setting": "STK25/YSK1 [1]", "value": "66.9 ± 0.1", "unit": "%"}]}
{"smiles": "O=C1C=CC2(C=C1)OCC(Cc1cn(-c3cccc(Cl)c3)nn1)C(=O)N2c1ccccc1", "note": "(centres unmarked) [2d, 3-((1-(3-Chlorophenyl)-1H-1,2,3-triazol-4-yl)methyl)-5-phenyl-1-oxa-5-azaspiro[5.5]undeca-7,10-diene-4,9-dione]", "values": [{"measurement": "IL-1β level", "setting": "IL-1β", "value": "concentration-dependent manner"}, {"measurement": "% Enzyme Activity (relative to DMSO controls)", "setting": "EIF2AK3", "value": 70.64, "unit": "%"}, {"measurement": "remaining activity at 30 µM", "setting": "EIF2AK3; [7]", "value": 70.8, "unit": "%"}, {"measurement": "% Enzyme Activity (relative to DMSO controls)", "setting": "TRKA; [8]", "value": 115.47, "unit": "%"}, {"measurement": "remaining activity at 30 µM", "setting": "TRKA; [9]", "value": 119, "unit": "%"}, {"measurement": "remaining activity at 30 µM", "setting": "TRKA; [10]", "value": "117 ± 2.6", "unit": "%"}, {"measurement": "% Enzyme Activity (relative to DMSO controls)", "setting": "JNK1; [8]", "value": 82.67, "unit": "%"}, {"measurement": "remaining activity at 30 µM", "setting": "JNK1; [9]", "value": 82.7, "unit": "%"}, {"measurement": "remaining activity at 30 µM", "setting": "JNK1; [10]", "value": "82.7 ± 0.1", "unit": "%"}, {"measurement": "% Enzyme Activity (relative to DMSO controls)", "setting": "AMPK(A1/B1/G1) [2]", "value": 60.04, "unit": "%"}, {"measurement": "remaining activity at 30 µM", "setting": "AMPK(A1/B1/G1) [3]", "value": 60.9, "unit": "%"}, {"measurement": "% Enzyme Activity (relative to DMSO controls)", "setting": "STK25/YSK1 [4]; [8]", "value": 61.07, "unit": "%"}, {"measurement": "remaining activity at 30 µM", "setting": "STK25/YSK1 [4]; [9]", "value": 63.3, "unit": "%"}, {"measurement": "remaining activity at 30 µM", "setting": "STK25/YSK1 [4]; [10]", "value": "62.2 ± 1.6", "unit": "%"}, {"measurement": "% Enzyme Activity (relative to DMSO controls)", "setting": "TRKA-TPM3", "value": 95.56, "unit": "%"}, {"measurement": "remaining activity at 30 µM", "setting": "TRKA-TPM3; [7]", "value": 98.2, "unit": "%"}, {"measurement": "iNOS expression level", "setting": "iNOS; 0.01 to 1 uM, LPS-induced BV-2 cells", "value": "downregulated iNOS and COX-2 more efficiently than compound 2a"}, {"measurement": "potency relative to L-NMMA", "setting": "iNOS; regulation of iNOS and COX-2, LPS-induced BV-2 cells", "value": 20, "unit": "fold"}, {"measurement": "remaining activity at 30 µM", "setting": "AMPK(A2/B2/G2) [5]", "value": 114, "unit": "%"}, {"measurement": "% Enzyme Activity (relative to DMSO controls)", "setting": "AMPK(A2/B2/G2) [6]", "value": 111.36, "unit": "%"}, {"measurement": "% Enzyme Activity (relative to DMSO controls)", "setting": "ROCK1; [8]", "value": 101.05, "unit": "%"}, {"measurement": "remaining activity at 30 µM", "setting": "ROCK1; [9]", "value": 105, "unit": "%"}, {"measurement": "remaining activity at 30 µM", "setting": "ROCK1; [10]", "value": "103 ± 3.1", "unit": "%"}, {"measurement": "% Enzyme Activity (relative to DMSO controls)", "setting": "PI3K (p110a(E542K)/p85a)", "value": 100.20, "unit": "%"}, {"measurement": "remaining activity at 30 µM", "setting": "PI3K (p110a(E542K)/p85a); [7]", "value": 103, "unit": "%"}, {"measurement": "% Enzyme Activity (relative to DMSO controls)", "setting": "ARK5/NUAK1; [8]", "value": 84.16, "unit": "%"}, {"measurement": "remaining activity at 30 µM", "setting": "ARK5/NUAK1; [9]", "value": 93.6, "unit": "%"}, {"measurement": "remaining activity at 30 µM", "setting": "ARK5/NUAK1; [10]", "value": "88.9 ± 6.7", "unit": "%"}, {"measurement": "secreted level of PGE2", "setting": "PGE2", "value": "concentration-dependent manner"}, {"measurement": "% Enzyme Activity (relative to DMSO controls)", "setting": "PI3K (p110a/p65a)", "value": 82.25, "unit": "%"}, {"measurement": "remaining activity at 30 µM", "setting": "PI3K (p110a/p65a); [7]", "value": 83.8, "unit": "%"}]}
